Test results from patent publication US5668143A, “Heterocyclic benzenesulfonylimine derivatives as inhibitors of IL-1 action” (Merrell Pharmaceuticals Inc., priority 1996, dated 1997).

What was measured:
[1] = Interleukin-1-Beta-Induced Tumor Necrosis Factor Alpha Release by Human Macrophages; format: cell-based; details: Macrophage; TNF-α release; recombinant human IL-1β 20 ng/mL; compound 1 h before stimulation; supernatant at 24 h; ELISA
From the text: Interleukin-1-Beta-Induced Tumor Necrosis Factor Alpha Release by Human Macrophages
To determine the inhibitory concentrations for the test compounds against interleukin-1 beta (IL-1β)-induced tumor necrosis factor alpha (TNFα) release by human peripheral blood monocyte-derived macrophages. It should be understood that this is a test of the ability of the test compounds to modulate, i.e. inhibit, the activity of IL-1β by measuring the inhibition of IL-1β induced release of TNFα.
Source Human peripheral blood monocyte-derived macrophages:
Venous blood is collected form healthy volunteers in 10 mM sodium citrate (2 mL sterile sodium citrate for 40 mL blood). Mononuclear cells are isolated with the Leucoprep tubes (Becton Dickinson, product number 2752 or 2751) spun at 1500 g for fifteen minutes. Aliquots of 3×10^6 mononuclear cells are added to 24-well tissue culture plates (Corning) in RPMI-1640. After 1 hour incubation at 37° C., non-adherent cells are gently rinsed off. The adherent cells (macrophages) are given back fresh medium RPMI-1640, 1 mL/well.
Macrophage monolayer cultures are pretreated with compounds one hour prior to IL-1β (20 ng/mL, recombinant human IL-1β) stimulation. Compounds dissolved in 95% ethanol or DMSO would require additional monolayer cultures treated with 10 or 2.5 μl 95% ethanol or DMSO, respectively. Culture supernatants are collected 24 hours later and are tested for TNF-α using a commercial ELISA kit (Cistron).
The TNF-α concentration in the culture supernatant is calculated by a standard curve generated from a series of known concentrations. Potency of compound is reported in IC50 (μM).

[2] = tested on: interleukin-1 beta (IL-1β) release (production) by human peripheral blood monocyte-derived macrophages; assay: Endotoxin-Induced Interleukin-1 Beta Release by Human Macrophages; format: cell-based; details: Macrophage, endotoxin 20 ng/mL (Salmonella typhimurium, Re-mutant), compound 1 h before stimulation, supernatant at 24 h, ELISA
Experimental: Endotoxin-Induced Interleukin-1 Beta Release by Human Macrophages The objective of this test is to determine the inhibitory concentrations for the test compounds against endotoxin-induced interleukin-1 beta (IL-1β) release (production) by human peripheral blood monocyte-derived macrophages. The source of the human peripheral blood monocyte-derived macrophages is as follows: Venous blood is collected from healthy volunteers in 10 mM sodium citrate (2 mL sterile sodium citrate for 40 mL blood). Mononuclear cells are isolated with the Leucoprep tubes (Becton Dickenson, product number 2752 or 2751) spun at 1500 g for 15 minutes. Aliquots of 3×10^6 mononuclear cells are added to 24-well tissue culture plates (Corning) in RPMI-1640. After one hour incubation at 37° C., non-adherent cells are gently rinsed off. The adherent cells (macrophages) are given back fresh medium RPMI-1640, 1 mL/well. Macrophage monolayer cultures are pretreated with compounds one hour prior to endotoxin (20 ng/mL, Salmonella typhimurium, Re-mutant, from Ribi Immuchem.) stimulation. Compounds dissolved in 95% ethanol or DMSO would require additional monolayer cultures treated with 10 or 2.5 μl 95% ethanol or DMSO, respectively. Culture supernatants are collected 24 hours later and are tested for IL-1β using a commercial ELISA kit (Cistron). The IL-1β concentration in the culture supernatant is calculated by a standard curve generated from a series of known concentrations. Potency of compound is reported in IC50 (μM).

Row | Structure (SMILES) | IC50 [1] [nM] | IC50 [2] [nM]
1 | COC(=O)c1cc(=NS(=O)(=O)c2ccccc2)c2ccccc2o1 [4-[Benzenesulfonylimino]-4H-chromene-2-carboxylic acid, methyl ester] | 2000 | 3000
2 | CCCCOC(=O)c1cc(=NS(=O)(=O)c2ccccc2)c2c(Cl)cc(Cl)cc2[nH]1 [5,7-Dichloro-4-[benzenesulfonylimino]-1,4-dihydroquinoline-2-carboxylic acid, butyl ester] | 5000 | 3000
3 | CCOC(=O)c1cc(=NS(=O)(=O)c2ccccc2)c2c(Cl)cc(Cl)cc2[nH]1 [5,7-Dichloro-4-[benzenesulfonylimino]-1,4-dihydroquinoline-2-carboxylic acid, ethyl ester] | 3000 | 2000
4 | COC(=O)c1cc(=NS(=O)(=O)c2ccccc2)c2c(Cl)cc(Cl)cc2[nH]1 [5,7-Dichloro-4-[benzenesulfonylimino]-1,4-dihydroquinoline-2-carboxylic acid, methyl ester] | 3000 | 6000
5 | CNC(=O)c1cc(=NS(=O)(=O)c2ccccc2)c2c(Cl)cc(Cl)cc2[nH]1 [5,7-Dichloro-4-[benzenesulfonylimino]-1,4-dihydroquinoline-2-carboxylic acid-N-methylamide] | 4000 | 3000
